{"source": "patent US20040127571A1", "about": "(UNIVERSITY OF SOUTH FLORIDA, priority 2002, published 2004)", "key": {"p27 (gene)": {"system": "p27 (gene)", "details": "previously shown; cited from earlier work"}, "K562": {"system": "K562", "test": "Cell cycle distribution of K562 cells after SAHA", "assay_type": "cell-based", "details": "1.0 to 5.0 uM SAHA for 48 hours; dose-dependent", "experimental": "Treatment with 1.0 to 5.0 uM SAHA for 48 hours increased the percentage of K562 in the G1 (the gap in the cell division cycle between mitosis and synthesis) phase of the cell cycle in a dose-dependent manner."}, "[1]": {"system": "imatinib refractory (resistant) cells", "test": "Apoptosis of imatinib refractory cells after SAHA", "assay_type": "cell-based"}, "Bcr-Abl": {"system": "Bcr-Abl", "test": "Bcr-Abl levels and auto-phosphorylation after SAHA (FIG. 2C)", "assay_type": "cell-based", "description": "(§1) Moreover, exposure to SAHA increases the acetylation of histones (H3) and the expression of p21 (FIG. 2B). […] SAHA downregulates the levels and auto-phosphorylation, the addition of a phosphate group, of Bcr-Abl (FIG. 2C)."}, "K562 cells": {"system": "K562 cells", "test": "Apoptosis of K562 cells after SAHA exposure", "assay_type": "cell-based", "details": "1.0 to 10.0 uM SAHA for 48 hours; FIG. 2A"}, "histones (H3), p21": {"system": "histones (H3), p21", "test": "Histone acetylation and p21 expression after SAHA (FIG. 2B)", "assay_type": "cell-based", "description": "as §1"}, "Lama-84 cells": {"system": "Lama-84 cells", "test": "Apoptosis of Lama-84 cells after SAHA exposure", "assay_type": "cell-based", "details": "1.0 to 10.0 uM SAHA for 48 hours; FIG. 2A"}, "p27 in K562 cells": {"system": "p27 in K562 cells", "test": "p27 expression in K562 cells after SAHA (FIG. 2B)", "assay_type": "cell-based", "description": "as §1"}, "p27 in LAMA cells": {"system": "p27 in LAMA cells", "test": "p27 expression in LAMA cells after SAHA (FIG. 2B)", "assay_type": "cell-based", "description": "as §1"}}}
{"compound": "O=C(CCCCCCC(=O)Nc1ccccc1)NO", "note": "[SAHA, Suberoylanilide Hydromaxic Acid]", "values": [{"measurement": "acetylation of histones of the chromatin associated with p27 (gene) / its transcription", "setting": "p27 (gene)", "value": "not to induce acetylation"}, {"measurement": "percentage of K562 in the G1 phase of the cell cycle", "setting": "K562", "value": "increased"}, {"measurement": "apoptosis in imatinib refractory (resistant) cells", "setting": "[1]", "value": "induces apoptosis"}, {"measurement": "auto-phosphorylation of Bcr-Abl", "setting": "Bcr-Abl", "value": "downregulates"}, {"measurement": "levels of Bcr-Abl", "setting": "Bcr-Abl", "value": "downregulates"}, {"measurement": "apoptosis of K562 cells", "setting": "K562 cells", "value": "dose-dependent increase"}, {"measurement": "acetylation of histones (H3)", "setting": "histones (H3), p21", "value": "increases"}, {"measurement": "expression of p21", "setting": "histones (H3), p21", "value": "increases"}, {"measurement": "apoptosis of Lama-84 cells", "setting": "Lama-84 cells", "value": "dose-dependent increase"}, {"measurement": "p27 expression", "setting": "p27 in K562 cells", "value": "induced p27 expression"}, {"measurement": "p27 expression", "setting": "p27 in LAMA cells", "value": "induced p27 expression"}]}
